Laboratory results: patent publication EP3046573B1, “AMYLIN ANALOGUES” (Zealand Pharma A/S, priority 2013, dated 2015)
Numbered stars: 1 amine (or outer) side, 2 acyl side, 3 side chain; on linkers, the order of the positions; unused ones are H or OH. Bridge positions count the residues as written; N and C are the ends. Square brackets hold non-standard residues; d marks the D form. Peptide text beside a SMILES is read from it. * marks the point of attachment. C20 diacid = O=C(O)CCCCCCCCCCCCCCCCCCC(=O)*; γGlu = O=C(O)[C@H](CCC(=O)[*:2])N[*:1]; NMeI = CC[C@H](C)[C@H](NC)C(=O)O; Sar = CNCC(=O)O

Experiments:
[1] = Solubility assessment (turbidity absorbance at 325 nm); type: physicochemical; conditions: stock 2 mg/ml diluted 1:1, ambient temperature (typically 25°C), n=1; for Solubility, Acetate buffer pH 4: 100 mM acetate buffer pH 4.0; for Solubility, Acetate buffer pH 5: 100 mM acetate buffer pH 5.0; for Solubility, Histidine buffer pH 6: 100 mM histidine buffer pH 6.0; for Solubility, Histidine buffer pH 7: 100 mM histidine buffer pH 7.0; for Solubility, Phosphate buffer pH 6: 100 mM phosphate buffer pH 6.0; for Solubility, Phosphate buffer pH 7: 100 mM phosphate buffer pH 7.0; for Solubility, Phosphate buffer pH 7.5: 100 mM phosphate buffer pH7.5
Outline: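 Read-out: turbidity as absorbance at 325 nm (280 nm also read), single samples, ambient temperature of typically 25°C. Samples were a 1:1 mix of 2 mg/ml stock (water, pH 2.5) with 100 mM acetate, histidine or phosphate buffers spanning pH 4.0–7.5. Cut-off: A325 ≤ 0.02 indicates ≥ 1 mg/ml.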

[2] = biological target: T1, human amylin receptor 3 (hAMYR3) consisting of hCTR2 co-expressed with human Receptor Activity Modifying Protein 3 (hRAMP3) (Homo sapiens, UniProt O60896+P30988); assay: hAMYR3 assay: induction of cAMP (AlphaScreen cAMP Assay kit) in COS7 cells expressing hAMYR3; type: cell-based; conditions: cAMP induction in COS7 cells expressing hAMYR3; average of a minimum of 3 determinations; read-out: hAMY R3 EC50
T1 construct: expressed in transfected cells
T1 sequence (P30988 25-474): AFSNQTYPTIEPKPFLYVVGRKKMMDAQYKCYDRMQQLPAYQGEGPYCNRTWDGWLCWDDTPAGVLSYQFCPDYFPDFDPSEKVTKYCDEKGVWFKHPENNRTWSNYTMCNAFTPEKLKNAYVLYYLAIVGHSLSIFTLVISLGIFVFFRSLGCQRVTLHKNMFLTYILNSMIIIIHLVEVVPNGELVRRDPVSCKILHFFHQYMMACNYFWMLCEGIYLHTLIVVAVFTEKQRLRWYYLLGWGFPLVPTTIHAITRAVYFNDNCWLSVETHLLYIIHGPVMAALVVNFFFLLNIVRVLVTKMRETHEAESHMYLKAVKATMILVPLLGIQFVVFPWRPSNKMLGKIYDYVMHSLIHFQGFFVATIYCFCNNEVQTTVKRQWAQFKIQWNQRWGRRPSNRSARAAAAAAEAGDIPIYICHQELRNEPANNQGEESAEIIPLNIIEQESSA
T1 sequence (O60896 24-148 partner): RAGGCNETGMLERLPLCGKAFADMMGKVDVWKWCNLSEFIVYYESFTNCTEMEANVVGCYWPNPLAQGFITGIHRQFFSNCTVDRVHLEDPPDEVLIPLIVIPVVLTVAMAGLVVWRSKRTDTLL
Outline: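 cAMP accumulation read by AlphaScreen in lysates of RAMP-naive COS7 cells stably transfected with hCTR2 plus hRAMP3. Cells exposed to peptide dilutions for 15 min, 37° C, with 100 µM IBMX; 4PL fitting gave EC50 and efficacy relative to pramlintide.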

[3] = biological target: T2, human calcitonin receptor (hCTR2) (Homo sapiens, UniProt P30988); assay: hCTR2 assay: induction of cAMP (AlphaScreen cAMP Assay kit) in COS7 cells expressing hCTR2; type: cell-based; conditions: cAMP induction in COS7 cells expressing hCTR2; average of a minimum of 3 determinations; read-out: hCTR2 EC50
T2 construct: expressed in transfected cells
T2 sequence (P30988 25-474): T1 sequence (P30988 25-474)
Outline: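 cAMP induction was measured by AlphaScreen in COS7 cells stably expressing hCTR2 without RAMPs, after 15 min at 37° C with increasing peptide concentrations, 100 µM IBMX and 0.1% casein (Tyrode, pH 7.4). A 4-parameter logistic fit gave EC50 and % efficacy versus pramlintide.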

Structure (SMILES): CC[C@H](C)[C@@H](C(=O)N[C@@H](CC(C)C)C(=O)N[C@@H](CO)C(=O)N[C@@H](CO)C(=O)N[C@H](C(=O)N[C@@H](CCC(=O)O)C(=O)N[C@H](C(=O)NCC(=O)N[C@@H](CO)C(=O)N[C@@H](CCC(=O)O)C(=O)N[C@H](C(=O)N1CCC[C@H]1C(N)=O)[C@@H](C)O)C(C)C)[C@@H](C)O)N(C)C(=O)[C@H](C)NC(=O)CN(C)C(=O)[C@H](Cc1ccccc1)NC(=O)[C@H](CO)NC(=O)[C@H](CO)NC(=O)[C@H](CO)NC(=O)[C@H](CO)NC(=O)[C@H](CCCNC(=N)N)NC(=O)[C@H](Cc1c[nH]cn1)NC(=O)[C@H](CC(C)C)NC(=O)[C@H](Cc1ccccc1)NC(=O)[C@H](CCC(=O)O)NC(=O)[C@H](C)NC(=O)[C@H](CC(C)C)NC(=O)[C@H](CCCNC(=N)N)NC(=O)[C@H](CO)NC(=O)[C@@H](NC(=O)[C@H](C)NC(=O)[C@@H]1CSSC[C@H](NC(=O)[C@H](CCCNC(=N)N)NC(=O)CC[C@H](NC(=O)CCCCCCCCCCCCCCCCCCC(=O)O)C(=O)O)C(=O)N[C@@H](CCC(=O)O)C(=O)N[C@@H]([C@@H](C)O)C(=O)N[C@@H](C)C(=O)N[C@@H]([C@@H](C)O)C(=O)N1)[C@@H](C)O [Compound 139, [19CD]-isoGlu-RC()ETATC()ATSRLAEFLHRSSSSF-Gly(Me)-A-Ile(Me)-LSSTEVGSETP-NH2] ({C20 diacid-γGlu}-RCETATCATSRLAEFLHRSSSSF[Sar]A[NMeI]LSSTEVGSETP-NH2; disulfide 2-7)
- Solubility, Acetate buffer pH 4 [1]: SS (SS indicates solubility ≥ 1mg/ml)
- Solubility, Acetate buffer pH 5 [1]: SS (SS indicates solubility ≥ 1mg/ml)
- Solubility, Histidine buffer pH 6 [1]: SS (SS indicates solubility ≥ 1mg/ml)
- Solubility, Histidine buffer pH 7 [1]: SS (SS indicates solubility ≥ 1mg/ml)
- Solubility, Phosphate buffer pH 6 [1]: SS (SS indicates solubility ≥ 1mg/ml)
- Solubility, Phosphate buffer pH 7 [1]: SS (SS indicates solubility ≥ 1mg/ml)
- Solubility, Phosphate buffer pH 7.5 [1]: SS (SS indicates solubility ≥ 1mg/ml)
- EC50 [2]: 0.35 nM
- EC50 [3]: 0.15 nM

Structure (SMILES): CC[C@H](C)[C@@H](C(=O)N[C@@H](CC(C)C)C(=O)N[C@@H](CO)C(=O)N[C@@H](CO)C(=O)N[C@H](C(=O)N[C@@H](CCC(=O)O)C(=O)N[C@H](C(=O)NCC(=O)N[C@@H](CO)C(=O)N[C@@H](CCC(=O)O)C(=O)N[C@H](C(=O)N1CCC[C@H]1C(N)=O)[C@@H](C)O)C(C)C)[C@@H](C)O)N(C)C(=O)[C@H](C)NC(=O)CN(C)C(=O)[C@H](Cc1ccccc1)NC(=O)[C@H](CO)NC(=O)[C@H](CO)NC(=O)[C@H](CO)NC(=O)[C@H](CO)NC(=O)[C@H](CCCNC(=N)N)NC(=O)[C@H](Cc1c[nH]cn1)NC(=O)[C@H](CC(C)C)NC(=O)[C@H](Cc1ccccc1)NC(=O)[C@H](CCC(=O)O)NC(=O)[C@H](C)NC(=O)[C@H](CC(C)C)NC(=O)[C@H](CCCNC(=N)N)NC(=O)[C@H](CO)NC(=O)[C@@H](NC(=O)[C@H](C)NC(=O)[C@@H]1CSSC[C@H](NC(=O)[C@H](CCCNC(=N)N)NC(=O)CC[C@H](NC(=O)CCCCCCCCCCCCCCCCCCC(=O)O)C(=O)O)C(=O)NCC(=O)N[C@@H]([C@@H](C)O)C(=O)N[C@@H](C)C(=O)N[C@@H]([C@@H](C)O)C(=O)N1)[C@@H](C)O [Compound 141, [19CD]-isoGlu-RC()GTATC()ATSRLAEFLHRSSSSF-Gly(Me)-A-Ile(Me)-LSSTEVGSETP-NH2] ({C20 diacid-γGlu}-RCGTATCATSRLAEFLHRSSSSF[Sar]A[NMeI]LSSTEVGSETP-NH2; disulfide 2-7)
- Solubility, Acetate buffer pH 4 [1]: SS (SS indicates solubility ≥ 1mg/ml)
- Solubility, Acetate buffer pH 5 [1]: SS (SS indicates solubility ≥ 1mg/ml)
- Solubility, Histidine buffer pH 6 [1]: SS (SS indicates solubility ≥ 1mg/ml)
- Solubility, Histidine buffer pH 7 [1]: SS (SS indicates solubility ≥ 1mg/ml)
- Solubility, Phosphate buffer pH 6 [1]: SS (SS indicates solubility ≥ 1mg/ml)
- Solubility, Phosphate buffer pH 7 [1]: SS (SS indicates solubility ≥ 1mg/ml)
- Solubility, Phosphate buffer pH 7.5 [1]: SS (SS indicates solubility ≥ 1mg/ml)
- EC50 [2]: 0.13 nM
- EC50 [3]: 0.11 nM

Structure (SMILES): CC[C@H](C)[C@@H](C(=O)N[C@@H](CC(C)C)C(=O)N[C@@H](CO)C(=O)N[C@@H](CO)C(=O)N[C@H](C(=O)N[C@@H](CCC(=O)O)C(=O)N[C@H](C(=O)NCC(=O)N[C@@H](CO)C(=O)N[C@@H](CCC(=O)O)C(=O)N[C@H](C(=O)N1CCC[C@H]1C(N)=O)[C@@H](C)O)C(C)C)[C@@H](C)O)N(C)C(=O)[C@H](C)NC(=O)CN(C)C(=O)[C@H](Cc1ccccc1)NC(=O)[C@H](CO)NC(=O)[C@H](CO)NC(=O)[C@H](CO)NC(=O)[C@H](CO)NC(=O)[C@H](CCCNC(=N)N)NC(=O)[C@H](Cc1c[nH]cn1)NC(=O)[C@H](CC(C)C)NC(=O)[C@H](Cc1ccccc1)NC(=O)[C@H](CCC(=O)O)NC(=O)[C@H](C)NC(=O)[C@H](CC(C)C)NC(=O)[C@H](CCCNC(=N)N)NC(=O)[C@@H]1CCCN1C(=O)[C@@H](NC(=O)[C@H](C)NC(=O)[C@@H]1CSSC[C@H](NC(=O)[C@H](CCCNC(=N)N)NC(=O)CC[C@H](NC(=O)CCCCCCCCCCCCCCCCCCC(=O)O)C(=O)O)C(=O)N2CCC[C@H]2C(=O)N[C@@H]([C@@H](C)O)C(=O)N[C@@H](C)C(=O)N[C@@H]([C@@H](C)O)C(=O)N1)[C@@H](C)O [Compound 143, [19CD]-isoGlu-RC()PTATC()ATPRLAEFLHRSSSSF-Gly(Me)-A-Ile(Me)-LSSTEVGSETP-NH2] ({C20 diacid-γGlu}-RCPTATCATPRLAEFLHRSSSSF[Sar]A[NMeI]LSSTEVGSETP-NH2; disulfide 2-7)
- Solubility, Acetate buffer pH 4 [1]: SS (SS indicates solubility ≥ 1mg/ml)
- Solubility, Acetate buffer pH 5 [1]: SS (SS indicates solubility ≥ 1mg/ml)
- Solubility, Histidine buffer pH 6 [1]: SS (SS indicates solubility ≥ 1mg/ml)
- Solubility, Histidine buffer pH 7 [1]: SS (SS indicates solubility ≥ 1mg/ml)
- Solubility, Phosphate buffer pH 6 [1]: SS (SS indicates solubility ≥ 1mg/ml)
- Solubility, Phosphate buffer pH 7 [1]: SS (SS indicates solubility ≥ 1mg/ml)
- Solubility, Phosphate buffer pH 7.5 [1]: SS (SS indicates solubility ≥ 1mg/ml)
- EC50 [2]: 0.44 nM
- EC50 [3]: 0.26 nM
